# Columns and labels:
# cocklebur = assay: Test B pre-/postemergence herbicide test; format: in vivo, Xanthium strumarium
# Outline: (§1)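 Seeds were planted and treated preemergence with compounds formulated in a non-phytotoxic solvent mixture containing surfactant, while plants at the 1- to 4-leaf stage (2 to 18 cm) received postemergence sprays. Flooded paddy plants were grown to the 2-leaf stage. After 13 to 15 days in a greenhouse, injury was visually rated 0–100 against untreated controls.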
# giant foxtail [1] = assay: Test B pre-/postemergence herbicide test; format: in vivo, Setaria faberi
# Outline: (§2)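 Greenhouse pot assay with simultaneous preemergence (treated seed) and postemergence (2–18 cm seedlings) applications of surfactant-containing, non-phytotoxic solvent formulations. Response scored visually 13–15 days later on a 0–100 scale, 100 meaning complete control.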
# corn = assay: Test B pre-/postemergence herbicide test; format: in vivo, Zea mays
# Outline: as §2
# Surinam grass = assay: Test B pre-/postemergence herbicide test; format: in vivo, Urochloa decumbens
# Outline: as §2
# rice [2] = assay: Test B flooded paddy test; format: in vivo, Oryza sativa; settings: 1000 g ai/ha, visual rating, scale 0 to 100 (0 no effect, 100 complete control), 13 to 15 days
# Outline: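 Greenhouse test; postemergence application to plants at 1–4 leaves (2–18 cm); paddy species at 2 leaves; evaluated visually vs controls at 13–15 days; scale 0–100 (100 = complete control).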
# barnyardgrass [3] = assay: Test A pre-/postemergence herbicide test; format: in vivo, Echinochloa crus-galli
# Outline: (§3)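 Greenhouse injury scoring (0–100, complete control = 100) at approximately ten days follows simultaneous pre- and postemergence application. Soil received a directed spray after seeding; seedlings of 2–10 cm at the one- to two-leaf stage were sprayed to runoff.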
# rice [4] = assay: Test B pre-/postemergence herbicide test; format: in vivo, Oryza sativa; settings: preemergence
# Outline: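 Species tested were Echinochloa crus-galli, Ipomoea coccinea, Xanthium strumarium and Oryza sativa, treated both before emergence and at the 1- to 4-leaf stage; rice and barnyardgrass were also tested under flooding at 2 leaves. Greenhouse incubation lasted 13–15 days before visual 0–100 scoring.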
# barnyardgrass [5] = assay: Test B flooded paddy test; format: in vivo, Echinochloa crus-galli; settings: 1000 g ai/ha, visual rating, scale 0 to 100 (0 no effect, 100 complete control), 13 to 15 days
# Outline: (§4)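 Postemergence plants were sprayed with formulated test chemicals at 2 to 18 cm height (1- to 4-leaf stage); paddy species were grown to the 2-leaf stage. After 13 to 15 days in a greenhouse, injury was rated visually against untreated controls on a 0–100 scale (0 = no effect, 100 = complete control).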
# ducksalad = assay: Test B flooded paddy test; format: in vivo, Heteranthera limosa; settings: 1000 g ai/ha, visual rating, scale 0 to 100 (0 no effect, 100 complete control), 13 to 15 days
# Outline: as §4
# large crabgrass [6] = assay: Test B pre-/postemergence herbicide test; format: in vivo, Digitaria sanguinalis
# Outline: as §2
# velvetleaf [7] = assay: Test B pre-/postemergence herbicide test; format: in vivo, Abutilon theophrasti
# Outline: as §2
# morningglory [8] = assay: Test B pre-/postemergence herbicide test; format: in vivo, Ipomoea coccinea
# Outline: as §1
# barnyardgrass [9] = assay: Test B pre-/postemergence herbicide test; format: in vivo, Echinochloa crus-galli
# Outline: as §1
# pigweed = assay: Test B pre-/postemergence herbicide test; format: in vivo, Amaranthus retroflexus
# Outline: as §2
# wild oat = assay: Test B postemergence herbicide test; format: in vivo, Avena fatua; settings: scale 0 (no effect) to 100 (complete control)
# Outline: (§5)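 Each value is a visual 0–100 response rating taken against controls 13 to 15 days after treatment in the greenhouse. Plants received formulated chemical postemergence at the 1- to 4-leaf stage or, in flooded paddy, at the 2-leaf stage.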
# morningglory [10] = assay: Test A pre-/postemergence herbicide test; format: in vivo, Ipomoea spp.
# Outline: as §3
# lambsquarters = assay: Test B pre-/postemergence herbicide test; format: in vivo, Chenopodium album
# Outline: as §2
# [11] = system: small flower umbrella sedge; assay: Test B flooded paddy test; format: in vivo, Cyperus difformis; settings: 1000 g ai/ha, visual rating, scale 0 to 100 (0 no effect, 100 complete control), 13 to 15 days
# Outline: as §4
# large crabgrass [12] = assay: Test A pre-/postemergence herbicide test; format: in vivo, Digitaria sanguinalis
# Outline: as §3
# giant foxtail [13] = assay: Test A pre-/postemergence herbicide test; format: in vivo, Setaria faberi
# Outline: as §3
# blackgrass = assay: Test B postemergence herbicide test; format: in vivo, Alopecurus myosuroides; settings: scale 0 (no effect) to 100 (complete control)
# Outline: as §4
# redroot pigweed = assay: Test A pre-/postemergence herbicide test; format: in vivo, Amaranthus retroflexus
# Outline: as §3
# velvetleaf [14] = assay: Test A pre-/postemergence herbicide test; format: in vivo, Abutilon theophrasti
# Outline: as §3
# wheat = assay: Test B postemergence herbicide test; format: in vivo, Triticum aestivum; set-up: key to Wheat plant response rating: 0 = no effect, 100 = complete control; settings: scale 0 (no effect) to 100 (complete control)
# Outline: as §5
# [15] = 500 g ai/ha, visual rating 0-100, 0 no effect, 100 complete control, preemergence
# [16] = Postemergence, 500 g ai/ha, visual rating after 13 to 15 days, scale 0 (no effect) to 100 (complete control)
# [17] = postemergence, 125 g ai/ha, visual rating, scale 0 (no effect) to 100 (complete control)
# [18] = preemergence, 125 g ai/ha, 0 to 100 scale, 0 is no effect, 100 is complete control
# [19] = Postemergence, 500 g ai/ha, 0 to 100 scale, 0 no effect, 100 complete control
# [20] = Postemergence, 2000 g ai/ha, 0 to 100 scale, 0 no effect, 100 complete control
# [21] = Preemergence, 500 g ai/ha, visual rating, 0 to 100 scale (0 no effect, 100 complete control)
# [22] = Preemergence, 2000 g ai/ha, 0 to 100 scale, 0 no effect, 100 complete control
# [23] = Postemergence, 500 g ai/ha, visual rating after 13 to 15 days
# [24] = postemergence, 125 g ai/ha, visual rating
compound,measurement,setting,value
CCn1nc(C(C)(C)C)cc1C(=O)Nc1cccc(C(=O)OC(C)C)c1C [Compound 92],"Plant response rating, Cocklebur",cocklebur; [15],0
same,"Plant response rating, Cocklebur",cocklebur; [16],0
same,Cocklebur plant response rating,cocklebur; [17],0
same,"Plant response rating, Cocklebur",cocklebur; [18],0
same,"Plant response rating, Foxtail, Giant",giant foxtail [1]; [15],10
same,"Plant response rating, Foxtail, Giant",giant foxtail [1]; [16],0
same,"Foxtail, Giant plant response rating",giant foxtail [1]; [17],0
same,"Plant response rating, Foxtail, Giant",giant foxtail [1]; [18],0
same,"Plant response rating, Corn",corn; [15],0
same,"Plant response rating, Corn",corn; [16],10
same,Corn plant response rating,corn; [17],10
same,"Plant response rating, Corn",corn; [18],0
same,"Plant response rating, Surinam Grass",Surinam grass; [15],0
same,"Plant response rating, Surinam Grass",Surinam grass; [16],10
same,Surinam Grass plant response rating,Surinam grass; [17],0
same,"Plant response rating, Surinam Grass",Surinam grass; [18],0
same,Rice plant response rating,rice [2],0
same,Barnyardgrass plant response rating,barnyardgrass [3]; [19],0
same,"Plant response rating, Barnyardgrass",barnyardgrass [3]; [20],0
same,Barnyardgrass plant response rating,barnyardgrass [3]; [21],0
same,Barnyardgrass plant response rating,barnyardgrass [3]; [22],0
same,"Plant response rating, Rice","rice [4]; 500 g ai/ha, visual rating 0-100, 0 no effect, 100 complete control",0
same,"Plant response rating, Rice","rice [4]; 125 g ai/ha, 0 to 100 scale, 0 is no effect, 100 is complete control",0
same,Barnyardgrass plant response rating,barnyardgrass [5],0
same,Ducksalad plant response rating,ducksalad,0
same,"Plant response rating, Crabgrass, Large",large crabgrass [6]; [15],10
same,"Plant response rating, Crabgrass, Large",large crabgrass [6]; [16],10
same,"Crabgrass, Large plant response rating",large crabgrass [6]; [17],0
same,"Plant response rating, Crabgrass, Large",large crabgrass [6]; [18],0
same,"Plant response rating, Velvetleaf",velvetleaf [7]; [15],0
same,"Plant response rating, Velvetleaf",velvetleaf [7]; [16],0
same,Velvetleaf plant response rating,velvetleaf [7]; [17],0
same,"Plant response rating, Velvetleaf",velvetleaf [7]; [18],0
same,"Plant response rating, Morningglory",morningglory [8]; [15],0
same,"Plant response rating, Morningglory",morningglory [8]; [16],0
same,Morningglory plant response rating,morningglory [8]; [17],0
same,"Plant response rating, Morningglory",morningglory [8]; [18],0
same,"Plant response rating, Barnyardgrass",barnyardgrass [9]; [15],0
same,"Plant response rating, Barnyardgrass",barnyardgrass [9]; [16],0
same,Barnyardgrass plant response rating,barnyardgrass [9]; [17],0
same,"Plant response rating, Barnyardgrass",barnyardgrass [9]; [18],0
same,"Plant response rating, Pigweed",pigweed; [15],0
same,"Plant response rating, Pigweed",pigweed; [16],10
same,Pigweed plant response rating,pigweed; [17],0
same,"Plant response rating, Pigweed",pigweed; [18],0
same,"Plant response rating, Oat, Wild",wild oat; [23],0
same,"Oat, Wild plant response rating",wild oat; [24],0
same,Morningglory plant response rating,morningglory [10]; [19],0
same,"Plant response rating, Morningglory",morningglory [10]; [20],0
same,Morningglory plant response rating,morningglory [10]; [21],0
same,Morningglory plant response rating,morningglory [10]; [22],0
same,"Plant response rating, Lambsquarters",lambsquarters; [15],0
same,"Plant response rating, Lambsquarters",lambsquarters; [16],20
same,Lambsquarters plant response rating,lambsquarters; [17],20
same,"Plant response rating, Lambsquarters",lambsquarters; [18],0
same,"Sedge, Umbrella plant response rating",[11],0
same,"Crabgrass, Large plant response rating",large crabgrass [12]; [19],0
same,"Plant response rating, Crabgrass, Large",large crabgrass [12]; [20],10
same,"Crabgrass, Large plant response rating",large crabgrass [12]; [21],0
same,"Crabgrass, Large plant response rating",large crabgrass [12]; [22],0
same,"Foxtail, Giant plant response rating",giant foxtail [13]; [19],0
same,"Plant response rating, Foxtail, Giant",giant foxtail [13]; [20],0
same,"Foxtail, Giant plant response rating",giant foxtail [13]; [21],0
same,"Foxtail, Giant plant response rating",giant foxtail [13]; [22],0
same,"Plant response rating, Blackgrass",blackgrass; [23],0
same,Blackgrass plant response rating,blackgrass; [24],0
same,Pigweed plant response rating,redroot pigweed; [19],0
same,"Plant response rating, Pigweed",redroot pigweed; [20],0
same,Pigweed plant response rating,redroot pigweed; [21],0
same,Pigweed plant response rating,redroot pigweed; [22],35
same,Velvetleaf plant response rating,velvetleaf [14]; [19],0
same,"Plant response rating, Velvetleaf",velvetleaf [14]; [20],0
same,Velvetleaf plant response rating,velvetleaf [14]; [21],0
same,Velvetleaf plant response rating,"velvetleaf [14]; Preemergence, 2000 g ai/ha, visual rating, 0 to 100 scale (0 no effect, 100 complete control)",0
same,"Plant response rating, Wheat",wheat; [23],0
same,Wheat plant response rating,wheat; [24],0

# — patent US20060069132A1, “Azolecarboxamide herbicides” (priority 2004, published 2006)
